Data from patent US11497212B2, “Substituted thiophenyl uracils, salts thereof and the use thereof as herbicidal agents” (Syngenta Crop Protection AG, priority 2017, dated 2022).
Blank lines part the entries; values can stand above or below the molecule they belong to.

What was measured:
Type in all cases: in vivo
[1] = test system: Avena fatua; test: Herbicidal action pre-emergence (greenhouse pot trial); conditions: application rate 320 g/ha
Procedure, shortened: (§1)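 Efficacy (%) was estimated visually about 3 wk post-application by comparing treated pots with untreated controls, where 0% denotes plants resembling controls and 100% denotes dead plants. Dose was 320 g/ha or less.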

[2] = test system: Echinochloa crus-galli; test: as above; conditions: application rate 320 g/ha, scored after about 3 weeks
Procedure, shortened: as §1

[3] = test system: Amaranthus retroflexus; test: as above; conditions: application rate 320 g/ha, scored after about 3 weeks
Procedure, shortened: as §1

[4] = test system: Cyperus esculentus; test: as above; conditions: application rate 320 g/ha
Procedure, shortened: as §1

[5] = test system: Hordeum murinum; test: as above; conditions: application rate 320 g/ha
Procedure, shortened: as §1

[6] = test system: Veronica persica; test: as above; conditions: application rate 320 g/ha
Procedure, shortened: as §1

[7] = test system: Alopecurus myosuroides; test: as above; conditions: application rate 320 g/ha, scored after about 3 weeks
Procedure, shortened: as §1

[8] = test system: Abutilon theophrasti; test: as above; conditions: application rate 320 g/ha, scored after about 3 weeks
Procedure, shortened: as §1

[9] = test system: Matricaria inodora; test: as above; conditions: application rate 320 g/ha, scored after about 3 weeks
Procedure, shortened: as §1

[10] = test system: Lolium rigidum; test: as above; conditions: application rate 320 g/ha
Procedure, shortened: as §1

[11] = test system: Setaria viridis; test: as above; conditions: application rate 320 g/ha, scored after about 3 weeks
Procedure, shortened: as §1

[12] = test system: Stellaria media; test: as above; conditions: application rate 320 g/ha, scored after about 3 weeks
Procedure, shortened: as §1

[13] = test system: Viola tricolor; test: as above; conditions: application rate 320 g/ha, scored after about 3 weeks
Procedure, shortened: as §1

[14] = test system: Pharbitis purpurea; test: as above; conditions: application rate 320 g/ha
Procedure, shortened: as §1

[15] = test system: Oryza sativa; test: Crop compatibility post-emergence (greenhouse pot trial)
Procedure, shortened: (§2)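 Visual % rating about 3 weeks post-treatment against untreated plants (100% dead, 0% unaffected). Post-emergence spray of aqueous WP/EC preparations with 0.5% additive at 600 L/ha water, applied at one-leaf stage to greenhouse pot-grown crops in sandy loam.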

[16] = test system: Glycine max; test: as above; conditions: application rate 20 g/ha
Procedure, shortened: as §2

[17] = test system: Triticum aestivum; test: as above
Procedure, shortened: as §2

[18] = test system: Zea mays; test: as above; conditions: application rate 80 g/ha
Procedure, shortened: as §2

[19] = test system: Polygonum convolvulus; test: Herbicidal action post-emergence (greenhouse pot trial); conditions: scored visually after about 3 weeks vs untreated controls
Procedure, shortened: (§3)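 One-leaf-stage seedlings, 2–3 weeks old, are treated on their green parts with an aqueous emulsion or suspension of the test compound (WP or EC, 0.5% additive) using 600 L/ha of water at up to 80 g/ha. About 3 weeks on, percent kill is estimated visually versus untreated plants.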

[20] = test system: Amaranthus retroflexus; test: as above; conditions: scored visually after about 3 weeks vs untreated controls
Procedure, shortened: as §3

[21] = test system: Veronica persica; test: as above
Procedure, shortened: as §3

[22] = test system: Abutilon theophrasti; test: as above; conditions: scored visually after about 3 weeks vs untreated controls
Procedure, shortened: as §3

[23] = test system: Matricaria inodora; test: as above; conditions: scored visually after about 3 weeks vs untreated controls
Procedure, shortened: as §3

[24] = test system: Viola tricolor; test: as above; conditions: application rate 80 g/ha
Procedure, shortened: as §3

[25] = test system: Pharbitis purpurea; test: as above
Procedure, shortened: as §3

[26] = test system: Glycine max; test: Crop compatibility pre-emergence (greenhouse pot trial); conditions: application rate 80 g/ha, effect vs untreated controls
Procedure, shortened: (§4)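 Crop plants were sown and covered with soil, then the soil surface was treated with formulated compound as an aqueous suspension or emulsion containing 0.5% additive, applied at a water rate equivalent to 600 L/ha. Damage was rated visually in percent relative to untreated pots after roughly three weeks in the greenhouse.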

[27] = test system: Zea mays; test: as above; conditions: application rate 80 g/ha, effect vs untreated controls
Procedure, shortened: as §4

[28] = test system: Avena fatua; test: Herbicidal action post-emergence (greenhouse pot trial); conditions: application rate 20 g/ha, scored visually after about 3 weeks vs untreated controls
Procedure, shortened: as §3

[29] = test system: Echinochloa crus-galli; test: as above; conditions: scored visually after about 3 weeks vs untreated controls
Procedure, shortened: as §3

[30] = test system: Digitaria sanguinalis; test: as above; conditions: application rate 20 g/ha
Procedure, shortened: as §3

[31] = test system: Hordeum murinum; test: as above; conditions: scored visually after about 3 weeks vs untreated controls
Procedure, shortened: as §3

[32] = test system: Lolium rigidum; test: as above; conditions: application rate 20 g/ha, scored visually after about 3 weeks vs untreated controls
Procedure, shortened: as §3

[33] = test system: Setaria viridis; test: as above; conditions: scored visually after about 3 weeks vs untreated controls
Procedure, shortened: as §3

[34] = test system: Stellaria media; test: as above; conditions: scored visually after about 3 weeks vs untreated controls
Procedure, shortened: as §3

Oryza sativa (Efficacy in %) ([15]; application rate 80 g/ha): 0%
Glycine max (Efficacy in %) [16]: 20%
Triticum aestivum (Efficacy in %) ([17]; application rate 20 g/ha): 10%
Zea mays (Efficacy in %) [18]: 0%
Glycine max (Efficacy in %) [26]: 0%
Zea mays (Efficacy in %) [27]: 20%
SMILES: CC(Sc1cc(-n2c(=O)cc(C(F)(F)F)n(C)c2=O)c(F)cc1Cl)C(=O)NCC1CS(=O)(=O)CCO1 (centres unmarked) [I.1-333]
Avena fatua (Efficacy in %) [1]: 100%
Echinochloa crus-galli (Efficacy in %) [2]: 100%
Amaranthus retroflexus (Efficacy in %) [3]: 100%
Cyperus esculentus (Efficacy in %) [4]: 80%
Hordeum murinum (Efficacy in %) [5]: 100%
Veronica persica (Efficacy in %) [6]: 100%
Alopecurus myosuroides (Efficacy in %) [7]: 100%
Abutilon theophrasti (Efficacy in %) [8]: 100%
Matricaria inodora (Efficacy in %) [9]: 100%
Lolium rigidum (Efficacy in %) [10]: 100%
Setaria viridis (Efficacy in %) [11]: 90%
Stellaria media (Efficacy in %) [12]: 100%
Viola tricolor (Efficacy in %) [13]: 100%
Pharbitis purpurea (Efficacy in %) [14]: 100%
Polygonum convolvulus (Efficacy in %) ([19]; application rate 80 g/ha): 100%
Amaranthus retroflexus (Efficacy in %) ([20]; application rate 80 g/ha): 100%
Veronica persica (Efficacy in %) ([21]; application rate 80 g/ha): 80%
Abutilon theophrasti (Efficacy in %) ([22]; application rate 80 g/ha): 100%
Matricaria inodora (Efficacy in %) ([23]; application rate 80 g/ha): 100%
Viola tricolor (Efficacy in %) [24]: 100%
Pharbitis purpurea (Efficacy in %) ([25]; application rate 80 g/ha): 80%

SMILES: CC(Sc1cc(-n2c(=O)cc(C(F)(F)F)n(C)c2=O)c(F)cc1Cl)C(=O)OC1CCOC1 (centres unmarked) [I.1-121]
Avena fatua (Efficacy in %) [28]: 80%
Echinochloa crus-galli (Efficacy in %) ([29]; application rate 20 g/ha): 100%
Polygonum convolvulus (Efficacy in %) ([19]; application rate 20 g/ha): 100%
Amaranthus retroflexus (Efficacy in %) ([20]; application rate 20 g/ha): 100%
Digitaria sanguinalis (Efficacy in %) [30]: 100%
Hordeum murinum (Efficacy in %) ([31]; application rate 20 g/ha): 80%
Veronica persica (Efficacy in %) ([21]; application rate 20 g/ha): 100%
Abutilon theophrasti (Efficacy in %) ([22]; application rate 20 g/ha): 100%
Matricaria inodora (Efficacy in %) ([23]; application rate 20 g/ha): 100%
Lolium rigidum (Efficacy in %) [32]: 80%
Setaria viridis (Efficacy in %) ([33]; application rate 20 g/ha): 100%
Stellaria media (Efficacy in %) ([34]; application rate 20 g/ha): 100%
Pharbitis purpurea (Efficacy in %) ([25]; application rate 20 g/ha): 100%

Oryza sativa (Efficacy in %) ([15]; application rate 5 g/ha): 20%
Glycine max (Efficacy in %) [16]: 20%
Triticum aestivum (Efficacy in %) ([17]; application rate 80 g/ha): 20%
Zea mays (Efficacy in %) [18]: 20%
Glycine max (Efficacy in %) [26]: 0%
Zea mays (Efficacy in %) [27]: 0%
SMILES: CC(Sc1cc(-n2c(=O)cc(C(F)(F)F)n(C)c2=O)c(F)cc1Cl)C(=O)OCC1CCCO1 (centres unmarked) [I.1-71]
Avena fatua (Efficacy in %) [1]: 90%
Echinochloa crus-galli (Efficacy in %) [2]: 100%
Amaranthus retroflexus (Efficacy in %) [3]: 100%
Cyperus esculentus (Efficacy in %) [4]: 80%
Hordeum murinum (Efficacy in %) [5]: 90%
Veronica persica (Efficacy in %) [6]: 100%
Alopecurus myosuroides (Efficacy in %) [7]: 100%
Abutilon theophrasti (Efficacy in %) [8]: 100%
Matricaria inodora (Efficacy in %) [9]: 100%
Lolium rigidum (Efficacy in %) [10]: 90%
Setaria viridis (Efficacy in %) [11]: 100%
Stellaria media (Efficacy in %) [12]: 100%
Viola tricolor (Efficacy in %) [13]: 100%
Pharbitis purpurea (Efficacy in %) [14]: 100%
Echinochloa crus-galli (Efficacy in %) ([29]; application rate 80 g/ha): 100%
Polygonum convolvulus (Efficacy in %) ([19]; application rate 80 g/ha): 100%
Amaranthus retroflexus (Efficacy in %) ([20]; application rate 80 g/ha): 100%
Hordeum murinum (Efficacy in %) ([31]; application rate 80 g/ha): 80%
Veronica persica (Efficacy in %) ([21]; application rate 80 g/ha): 100%
Abutilon theophrasti (Efficacy in %) ([22]; application rate 80 g/ha): 100%
Matricaria inodora (Efficacy in %) ([23]; application rate 80 g/ha): 100%
Setaria viridis (Efficacy in %) ([33]; application rate 80 g/ha): 100%
Stellaria media (Efficacy in %) ([34]; application rate 80 g/ha): 100%
Viola tricolor (Efficacy in %) [24]: 100%
Pharbitis purpurea (Efficacy in %) ([25]; application rate 80 g/ha): 100%
